# Like-named read-outs stand apart in the source and are kept apart here.
# Assays:
# [1] = in vivo; cited from earlier work
# [2] = cited from earlier work
# [3] = tested on: rat air pouch model of crystal-induced arthropathy (MSU); experiment: Rat air pouch model, Example 9 (Compound 4 in combination with colchicine); assay type: in vivo
# Method: Sodium hydroxide (40 g, Fisher Scientific) was dissolved in de-ionized water (100 mL, dH2O) to provide a 10N solution. […] The resulting clear solution was cooled to 4-8° C., resulting in the formation of crystals, which were isolated by filtration, washed three times with de-ionized wa[…]) and dried at 37° C. The dried mono sodium urate crystals were sifted into an air-tight container for storage. […] Methylcellulose (0.4 g, Sigma) was dissolved in de-ionized water (100 mL) to provide a 0.4% solution used as vehicle. […] Test compounds were suspended in vehicle to provide the desired concentrations, and diluted accordingly. […] The animals were in apparent good health with no clinical signs of disease or distress. The rats were placed in quarantine with daily inspections, ear notched for identification purposes and shaved at the nape of the neck. The rats were anesthetized (isoflurane), and the nape of the neck was cleansed with 70% isopropanol (Butler Animal Health Supply) followed by povidone-iodine solution (Ricca Chemical Co.). Sterile air (30 mL, 0.2 μm, Millipore) was injected subcutaneously using a 23 G×11⁄2 inch needle fixed to a 30 mL syringe. The rats were returned to routine housing with no adverse reactions observed. The rats were anesthetized (isoflurane), and the nape of the neck was cleansed with 70% isopropanol (Butler Animal Health Supply) followed by povidone-iodine solution (Ricca Chemical Co.). Sterile air (15 mL, 0.11 μm, Millipore) was injected subcutaneously using a 23 G×11⁄2 inch needle fixed to a 20 mL syringe. The rats were returned to routine housing with no adverse reactions observed. The rats were weighed and sorted into treatment groups based on average body weight. As appropriate, the rats were dosed orally with test compound or vehicle (saline alone). […] Thirty minutes after SC injection or two hours after PO dosing, MSU (15 mL) was injected into the air pouch using an 18 G×2 inch needle fitted to a 20 mL syringe. Control group was injected with 15 mL sterile saline (vehicle). The injection sites were closed (collodion, Macron) and the rats returned to their cages with no adverse effects observed. Four hours after MSU/saline injection, the rats were anesthetized and heparinized saline (5 mL, 10 U/mL) was injected into the air pouch. […] An aliquot of the exudate was transferred to green Eppendorf tubes for total white blood cell (WBC) measurement. After allowing the MSU crystals to settle out for ten minutes, an aliquot of the exudate was transferred to heparinized microtainer tubes (Becton Dickinson) for differential white blood cell counts. The remainder of the exudate was centrifuged and an aliquot of the supernatants was dispensed to labeled clear Eppendorf tubes and stored at -80° C. The rats were exsanguinated into pre-chilled serum separator tubes, processed to serum, and 0.5 mL aliquot was stored at -80° C. in labeled Eppendorf tubes. […] [table]
# [4] = tested on: neutrophils; experiment: Cell migration (chemotaxis) assay, neutrophil counts; assay type: cell-based; details: 10 μM; MSU-conditioned media; FIG. 1A
# [5] = tested on: PBMCs; experiment: Cell migration (chemotaxis) assay, PBMC counts; assay type: cell-based; details: 10 μM; MSU crystal conditioned media; FIG. 1B
# Method: Primary blood monocytes (PMBC) were obtained from the lymphocyte layer (buffy coat) of peripheral blood from normal donors. Each leukopack (Interstate Blood Bank) was diluted with an equal volume of PBS, and 35 mL of blood preparation was over-laid onto 15 mL of Ficoll-Paque™ PLUS (GE Healthcare Bio-Sciences). Tubes were centrifuged at 700×g without breaks for 30 minutes at room temperature. The buffy coat interface was removed, added to PBS (40 mL), and centrifuged at 300×g. Any remaining erythrocytes in the cell pellet were lysed by incubating cells in red blood cell lysis buffer (10 mL, R&D Systems) for 10 minutes at room temperature. Following lysis, PBS (40 mL) was added and the cells centrifuged for 5 minutes at 200×g. The pellet was washed once with PBS and re-suspended in complete RPMI and seeded onto a BD Falcon™ 100 mm tissue culture dish (Cat. No. 353003). After one hour, the media was aspirated and the adherent cells (predominantly monocytes) were harvested using a cell scraper and used in chemotaxis assays. Chemotaxis was assayed in 48-well plates with BD Falcon FluoroBlok Multiwell inserts with 3 μm pores (Cat. No. 351161 or 351162) coated with hFN. […] Fluorescence emitted from cells that had migrated to the bottom surface of the insert was measured at various time points. Cells labeled with Calcein AM were read at 485/530 nm (Ex/Em) wavelength. […]
# [6] = dog; cited from earlier work
# [7] = target: T1, CXCR-2 (Homo sapiens, UniProt P25025); details: in vitro; cited from earlier work
# T1 sequence (P25025 1-360): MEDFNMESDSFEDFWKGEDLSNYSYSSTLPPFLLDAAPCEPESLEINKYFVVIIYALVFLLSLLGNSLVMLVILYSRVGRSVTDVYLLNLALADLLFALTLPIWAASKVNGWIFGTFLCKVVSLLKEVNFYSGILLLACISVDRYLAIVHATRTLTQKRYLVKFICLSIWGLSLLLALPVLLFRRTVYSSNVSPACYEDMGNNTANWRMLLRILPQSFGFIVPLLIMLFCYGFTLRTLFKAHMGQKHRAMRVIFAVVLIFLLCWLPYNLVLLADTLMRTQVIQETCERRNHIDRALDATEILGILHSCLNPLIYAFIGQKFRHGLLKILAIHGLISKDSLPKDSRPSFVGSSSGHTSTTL
# [8] = rat; cited from earlier work
# [9] = cited from earlier work; remark: listed apart in the source
# [10] = 10 umol/kg PO + Colchicine 0.3 mpk SC, Group 10
smiles,measurement,setting,value
"COc1cc2c(c(OC)c1OC)-c1ccc(OC)c(=O)cc1[C@@H](NC(C)=O)CC2 [Colchicine, COLCHICINE, reference compound]",eliminated unchanged in the urine,[1],10-20%
same,gastrointestinal side effects,"[2]; lower dose regimen: 1.2 mg at onset of acute gout attack, then 0.6 mg after one hour",24%
same,gastrointestinal side effects,"[2]; standard dose regimen: 1.2 mg at onset of acute gout attack, then 0.6 mg every hour for 6 hours",73%
same,"Severe diarrhea, % of patients",[2]; standard dose regimen,19%
same,"vomiting, % of patients",[2]; standard dose regimen,15%
same,Avg Exudate Vol,"[3]; 0.3 mpk SC, Group 3",12.4 mL
same,Avg Tot WBC,"[3]; 0.3 mpk SC, Group 3",120 ×10^6
same,Neutrophils,"[3]; 0.3 mpk SC, Group 3",101.9 ×10^6
same,Avg Exudate Vol,"[3]; 0.5 mpk SC, Group 4",8.8 mL
same,Avg Tot WBC,"[3]; 0.5 mpk SC, Group 4",58 ×10^6
same,Neutrophils,"[3]; 0.5 mpk SC, Group 4",42.7 ×10^6
same,Avg Exudate Vol,"[3]; 1.0 mpk SC, Group 5",5.6 mL
same,Avg Tot WBC,"[3]; 1.0 mpk SC, Group 5",16 ×10^6
same,Neutrophils,"[3]; 1.0 mpk SC, Group 5",9.8 ×10^6
"CC[C@@H](Nc1c(Nc2cccc(C(=O)N(C)C)c2O)c(=O)c1=O)c1ccc(C)o1 [Compound 2, (R)-2-hydroxy-N,N-dimethyl-3-((2-((1-(5-methylfuran-2-yl)propyl)amino)-3,4-dioxocyclobut-1-en-1-yl)amino)benzamide]",inhibition of migration in neutrophils,[4],significant inhibition of migration
same,inhibition in migration in PBMCs,[5],significant inhibition in migration
"C[C@@H](Oc1cc(NS(=O)(=O)N2CCC2)nc(SCc2cccc(F)c2F)n1)[C@@H](O)CO [Compound 3, N-(2-((2,3-difluorobenzyl)thio)-6-(((2R,3S)-3,4-dihydroxybutan-2-yl)oxy)pyrimidin-4-yl)azetidine-1-sulfonamide]",half-life,[6],long
same,potency,[7],high
same,bioavailability,[8],49%
same,solubility properties,[9],good
"CC1CN(S(=O)(=O)Nc2cc(O[C@H](C)[C@@H](O)CO)nc(SCc3ccc(F)cc3)n2)C1 [Compound 4, N-(6-(((2R,3S)-3,4-dihydroxybutan-2-yl)oxy)-2-((4-fluorobenzyl)thio)pyrimidin-4-yl)-3-methylazetidine-1-sulfonamide]",Avg Exudate Vol,[3]; [10],7.8 mL
same,Avg Tot WBC,[3]; [10],20 ×10^6
same,Neutrophils,[3]; [10],6.4 ×10^6
same,Avg Exudate Vol,"[3]; 10.0 umol/kg PO, Group 6",12.5 mL
same,Avg Tot WBC,"[3]; 10.0 umol/kg PO, Group 6",160 ×10^6
same,Neutrophils,"[3]; 10.0 umol/kg PO, Group 6",102.1 ×10^6
same,Avg Exudate Vol,"[3]; 30.0 umol/kg PO, Group 7",6.7 mL
same,Avg Tot WBC,"[3]; 30.0 umol/kg PO, Group 7",28.7 ×10^6
same,Neutrophils,"[3]; 30.0 umol/kg PO, Group 7",14 ×10^6
same,Avg Exudate Vol,"[3]; 100 umol/kg PO, Group 8",6 mL
same,Avg Tot WBC,"[3]; 100 umol/kg PO, Group 8",12 ×10^6
same,Neutrophils,"[3]; 100 umol/kg PO, Group 8",3.8 ×10^6
same,Avg Exudate Vol,"[3]; 300 umol/kg PO, Group 9",5.2 mL
same,Avg Tot WBC,"[3]; 300 umol/kg PO, Group 9",8.1 ×10^6
same,Neutrophils,"[3]; 300 umol/kg PO, Group 9",4.3 ×10^6
